We go through 3 compounds from article PMC12169663, “Deciphering the Tumor Uptake of Heterobivalent (SST2/Albumin) [^64Cu]Cu-NODAGA-cLAB-TATEs” (Journal of Medicinal Chemistry, 2025).

Read-outs that look alike come from different tables or passages of the source.

One data set deals with HSA (Homo sapiens, UniProt P02768). Kind of data set: Kd[HSA] from SST2 saturation binding in presence of HSA, nonlinear regression with model of Blakeley et al. From the text: Blakeley et al. developed a mathematical model that includes radioligand, protein (herein HSA), and target receptor (herein SST2) to derive the K d[HSA] value of the radioligand from saturation binding experiments to the target receptor in the presence of HSA. The authors specified an explicit mathematical solution for their proposed cubic equation and provided this solution also in a practical format for GraphPad Prism, which allows the analysis of experimental data but also simulations.
Chain of HSA (P02768 25-609): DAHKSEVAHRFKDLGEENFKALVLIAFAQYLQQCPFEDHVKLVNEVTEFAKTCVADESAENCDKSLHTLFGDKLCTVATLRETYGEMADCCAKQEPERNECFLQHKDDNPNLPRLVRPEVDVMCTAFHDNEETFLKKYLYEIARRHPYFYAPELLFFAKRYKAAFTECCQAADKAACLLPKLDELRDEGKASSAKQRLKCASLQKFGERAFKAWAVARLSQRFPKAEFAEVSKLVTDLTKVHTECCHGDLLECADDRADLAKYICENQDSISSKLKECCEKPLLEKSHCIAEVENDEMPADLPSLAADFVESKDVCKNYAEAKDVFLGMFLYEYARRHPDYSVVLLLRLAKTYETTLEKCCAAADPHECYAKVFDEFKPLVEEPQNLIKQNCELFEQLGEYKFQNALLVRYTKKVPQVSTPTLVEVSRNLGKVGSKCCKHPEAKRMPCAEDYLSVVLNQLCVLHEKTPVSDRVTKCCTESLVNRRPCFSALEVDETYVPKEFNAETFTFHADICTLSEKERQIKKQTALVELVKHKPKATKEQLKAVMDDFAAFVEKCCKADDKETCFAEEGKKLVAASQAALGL

Details of data set [1]: method as in not given. The conditions noted are these: previously characterized; ref not given; cited from earlier work.
Data set [2] deals with human serum albumin (HSA) (Homo sapiens, UniProt P02768).
Chain of human serum albumin (HSA) (P02768 25-609): as above
Experimental: The ultrafiltration assay used to quantify the binding of the ^64Cu-labeled peptides to HSA was performed as previously described for NODAGA-cLAB-TATEs. , Briefly, a constant activity amount of the radioligands (10–15 MBq) were mixed with different HSA concentrations (200 nM–1.4 mM). Aliquots were loaded into the ultrafiltration devices (4104 centrifugal filter units by Millipore; 30 000 Da nominal molecular weight limit, methylcellulose micropartition membranes) and centrifuged. After centrifugation, aliquots from the top and bottom fractions were measured in a γ-counter (PerkinElmer, Wizard^2 2480 automatic gamma counter). The retained fraction was calculated as a quotient of these measurements. The dissociation constant, K d, was calculated using the Morrison equation.
Another data set is described as follows: in vivo. Conditions: female, NMRI-nu/nu (Rj:NMRI-Foxn1nu/nu), mouse, iv, total radioactivity.
The subject of another data set is intact AR42J cells. Also noted: method as in not given. Conditions: nonlabeled ligands, ref not given; cited from earlier work.
Data set [3] has as its system SST2-transfected HTC116 cells. Also noted: method as in not given. Conditions: nonlabeled ligands, ref not given; cited from earlier work.

Experimental for in vivo: The biodistribution of [ ^ 64 Cu]­Cu-NODAGA-cLAB­(5/6)-TATE, [ ^ 64 Cu]­Cu-NODAGA-cLAB4- scr TATE, and [ ^ 64 Cu]­Cu-DOTA-EB-TATE was assessed in a subcutaneous MPC tumor allograft model via small-animal PET imaging (Figure A–D). The time-activity curves (TACs) for tumor, kidneys, and heart are shown in Figure A–D (for TACs of muscle and liver, see Figure S6) and the calculated areas under curves (AUC0–48h) and tumor-to-tissue ratios are graphically summarized in Figure E,F, respectively.
(A–D) Time-activity curves (SUV, decay-corrected, as a function of time up to 48 h) obtained by PET acquisition are depicted (0–2 h in dynamic mode and time points 5, 24, and 48 h p.i.; the x-axes are segmented accordingly). Data shown are mean values (±SD) of a group of MPC tumor-bearing NMRI-nu/nu mice (n = 2, but for cLAB6-TATE n = 4). […] (E) Calculated AUC0–48h values. Data shown are mean values (±SD). (F) Tumor/organ ratios based in the AUC0–48h values.
A number of 4 × 10^6 MPC cells were resuspended in 40 μL of Dulbecco’s phosphate-buffered saline and injected subcutaneously into the shoulder of 7–10-week-old female nude mice (Rj:NMRI-Foxn1^nu/nu, Janvier Laboratories, Le Genest-Saint-Isle, France). General anesthesia was induced and maintained with inhalation of 10% (v/v) desflurane in 30% oxygen/air (v/v). Tumor growth was monitored using caliper measurements. Animals were sacrificed using CO2 inhalation and cervical dislocation. When diameters of MPC tumors reached 8 ± 3 mm (volumes of 65–282 mm^3), small-animal positron emission tomography (PET) was performed using the nanoScan PET/CT (Mediso Medical Imaging Systems, Budapest, Hungary) and Si78 PET/CT (BRUKER, Billerica, MA) instruments. Scanners were cross-calibrated using a syringe source containing 10 MBq of [^64Cu]­CuCl2 diluted in 2 mL of 0.01 M HCl. Each mouse (n = 2) received between 7 and 10 MBq of the respective radioligand (A m = 40 GBq/μmoL) delivered in 0.154 M NaCl via intravenous injection through a tail vein catheter within the initial 30 s after scan start. […] Standardized uptake values (SUV = [MBq detected activity/mL tissue]/[MBq injected activity/g body weight]) were determined in defined volumes of interest (VOIs) and reported as VOI-averaged SUVmean ± range [min–max]. Assuming a density of 1 g/mL for body tissues, the SUVs become dimensionless.

As for `C[C@@H](O)[C@H](NC(=O)[C@@H]1CSSC[C@H](NC(=O)[C@@H](Cc2ccccc2)NC(=O)CC[C@H](C(=O)O)N2CCN(CC(=O)O)CCN(CC(=O)O)CC2)C(=O)N[C@@H](Cc2ccc(O)cc2)C(=O)N[C@H](Cc2c[nH]c3ccccc23)C(=O)N[C@@H](CCCCN)C(=O)N[C@@H]([C@@H](C)O)C(=O)N1)C(=O)O` [[64Cu]Cu-NODAGA-TATE, metal not drawn], the Kd at HSA (1–100 μM HSA, read-out: Kd[HSA] derived from saturation binding, range over the HSA concentrations) was 3.9 to 108 µM; at HSA ([HSA] 1 μM, read-out: Kd[HSA] derived from saturation binding), 5.63 µM; at HSA ([HSA] 5 μM, read-out: Kd[HSA] derived from saturation binding), 4.02 µM; at HSA ([HSA] 20 μM, read-out: Kd[HSA] derived from saturation binding) it was 3.89 µM; at HSA ([HSA] 40 μM, read-out: Kd[HSA] derived from saturation binding), 16.7 µM; at HSA ([HSA] 100 μM, read-out: Kd[HSA] derived from saturation binding) it was 108 µM. For the same compound, in data set [1], the “log D7.4” value was −3.43.
As for `Cc1cc(-c2ccc(NC(=O)[C@H](CCCCNC(=O)CCN3C(=O)CC(SCCC(=O)N[C@H](Cc4ccccc4)C(=O)N[C@H]4CSSC[C@@H](C(=O)N[C@H](C(=O)O)[C@@H](C)O)NC(=O)[C@H]([C@@H](C)O)NC(=O)[C@H](CCCCN)NC(=O)[C@@H](Cc5c[nH]c6ccccc56)NC(=O)[C@H](Cc5ccc(O)cc5)NC4=O)C3=O)NC(=O)CN3CCN(CC(=O)O)CCN(CC(=O)O)CCN(CC(=O)O)CC3)c(C)c2)ccc1/N=N/c1ccc2c(S(=O)(=O)O)cc(S(=O)(=O)O)c(N)c2c1O` (some centres unmarked) [[64Cu]Cu-DOTA-EB-TATE, metal not drawn], the logD (in general, lipophilicity at a set pH, counting ionised and neutral species) is -2.26. Besides, the Kd in data set [2] was 1.2 µM. In “in vivo”, the SUV at 24 h worked out at 6 SUV, the SUV at 48 h is 5.6 SUV and the SUV at 72 h came out at 5.6 SUV.
As for DOTA-TATE, the figures for the IC50 (in the data set on intact AR42J cells; in data set [3]) were 0.00346 µM and 0.0102 µM, respectively.
